For assay [1], the system named is ER-positive invasive breast cancer with negative axillary lymph nodes. Put plainly: NSABP B-14 placebo and TAM arms combined: Cox interaction of treatment effect with gene expression, distant recurrence-free survival. Type of assay: in vivo, human. To be noted: for H.R., treatment by gene expression interaction: placebo and TAM combined. On the procedure:
Endometrial cancer in TAM-treated breast cancer patients: Findings from the National Surgical Adjuvant Breast and Bowel Project (NSABP) B-14. J Natl Cancer Inst 86:527-537(1994). • 1.1 Fixed paraffin-embedded breast tumor tissue samples from up to 450 patients, who were treated at study entry with placebo alone in the B-14 study, were analyzed. For each evaluable patient, the expression of 16 cancer-related genes and 5 reference genes was quantitatively assessed by RT-PCR. […] Contralateral disease, other second primary cancers, and deaths prior to distant recurrence will be considered censoring events. […] Gene expression values were normalized relative to the mean of the reference genes. For each cancer-related gene, cycle threshold (CT) measurements were obtained by RT-PCR, and normalized relative to a set of five reference genes listed in Table 1. […] For the purpose of identifying treatment predictive genes in breast cancer, our primary objective was to explore the relation between gene expression and DRFS and OS in treated patients. For such analyses, data from both treated and untreated patient arms were utilized in order to discriminate treatment preditive genes from purely prognostic genes. For identifying treatment predictive genes for tamoxifen (TAM) response, both placebo and TAM-treated patients were included from NSABP Study B-14. In both studies, Cox proportional hazards models were utilized to examine the interaction between the treatment effect and gene expression. An interaction between treatment and gene expression exists if the treatment effect depends on the gene expression level; that is, if gene expression is a treatment predictive factor. Again, the likelihood ratio test was used to identify statistically significant predictive treatment genes by comparing the reduced model excluding the gene expression by treatment interaction versus the competing full model including the gene expression by treatment interaction.

Assay [2] relates to ESR1 positive, node-negative breast cancer. Put plainly: Recurrence Score validation trial, patients treated with TAM alone in NSABP Study B-14: distant recurrence at 10 years. It counts as in vivo, human. The protocol:
To test the clinical validity of this Recurrence Score test and algorithm, a blinded clinical trial with prospectively identified endpoints was carried out. This validation trial focused on patients treated with TAM alone in the randomized and registration arms of the National Surgical Adjuvant Breast and Bowel Project (NSABP) Study B-14 clinical trial population (Fisher B, Costantino J P, Redmond C K, et al: Endometrial cancer in TAM-treated breast cancer patients: Findings from the National Surgical Adjuvant Breast and Bowel Project (NSABP) B-14. J Natl Cancer Inst 86:527-537 (1994)). Genomic Health, Inc. and the NSABP carried out the 21 gene RT-PCR assay on 668 breast cancer tissue specimens derived from these patients and calculated a Recurrence Score for each patient.
Pre-specified cut-off points of Recurrence Score classified patients into one of three categories: low risk, intermediate risk, and high risk of distant disease recurrence. The proportion of the 668 patients categorized as low, intermediate, and high risk by the RT-PCR assay were 51%, 23%, and 27%, respectively. […] In a multivariate Cox model relating distant recurrence to Recurrence Score, age, and tumor size, Recurrence Score provides significant (p<0.001) predictive power that goes beyond age and tumor size. This study validated the Recurrence Score as a powerful predictor of distant recurrence in patients without involved nodes who have tumors that are ESR1 positive and treated with TAM (Paik et al. Breast Cancer Research and Treatment 82, Supplement 1: page S10, 2003 (Abstract 16).

Turning to `CC/C(=C(\c1ccccc1)c1ccc(OCCN(C)C)cc1)c1ccccc1` [TAM, tamoxifen], the “decrease of H.R. for recurrence of TAM-treated patients” value in assay [1] (for every two fold increase in expression of ESR1, 95% confidence limits ~12% to ~37%) is given as “about 25%”. In addition, the “absolute benefit of TAM treatment” value is “little benefit” in assay [1] (patients in the lowest quartile of ESR1 expression (FIG. 3)); “much less impact” in assay [1] (patients in the lowest tertile of ESR1 expression (FIG. 2)); “substantial absolute benefit” in assay [1] (two-thirds of patients who express ESR1 at the highest levels (tertiles, FIG. 2)). In addition, the “H.R., treatment by gene expression interaction” value turned out to be 0.7697 in assay [1] (variable IntBCL2_2); 0.7573 in assay [1] (variable IntESR1 Group); 0.7438 in assay [1] (variable IntESR1_1); 0.8058 in assay [1] (variable IntSCUBE2_2); 1.944 in assay [1] (variable IntTFRC_3). The “Kaplan-Meier estimate (95% confidence interval) of rate of distant recurrence at 10 years” value was 30.5% (23.6%, 37.4%) in assay [2] (high risk group by Recurrence Score); 14.3% (8.3%, 20.3%) in assay [2] (intermediate risk group by Recurrence Score); 6.8% (4.0%, 9.6%) in assay [2] (low risk group by Recurrence Score).

The values are drawn from patent US7622251B2, “Molecular indicators of breast cancer prognosis and prediction of treatment response” (Genomic Health, Inc., priority 2004, dated 2009).
